As a reminder, the IC50 is the concentration needed to halve the response being measured.

The target of the assay is T1, Human recombinant PTP-1B (Homo sapiens, UniProt P18031).
T1 construct: Human recombinant PTP-1B, containing amino acids 1-321, fused to GST enzyme; GST (glutathione S-transferase)
T1 sequence (P18031 1-321): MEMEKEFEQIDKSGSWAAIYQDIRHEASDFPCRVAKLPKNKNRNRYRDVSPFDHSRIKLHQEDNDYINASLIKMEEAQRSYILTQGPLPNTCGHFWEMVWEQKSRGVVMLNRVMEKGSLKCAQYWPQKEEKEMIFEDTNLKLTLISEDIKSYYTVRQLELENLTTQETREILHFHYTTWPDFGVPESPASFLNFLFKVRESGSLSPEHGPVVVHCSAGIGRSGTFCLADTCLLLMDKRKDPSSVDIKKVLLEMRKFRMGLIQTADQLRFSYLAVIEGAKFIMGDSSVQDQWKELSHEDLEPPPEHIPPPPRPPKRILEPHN
The assay is described as follows: Assay for PTP-1B Activity (pNPP substrate). Format: biochemical. The settings on record: human recombinant PTP-1B (1-321) GST fusion, 2 mM pNPP, pH 7.4, 30° C., 20 min; read-out: Activity Code (IC50 range). The procedure, abridged: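 GST-fused human PTP-1B (aa 1-321) hydrolysed 2 mM pNPP in 50 mM HEPES pH 7.4, 100 mM NaCl, 2 mM EDTA, 3 mM DTT for 20 min at 30 °C, after a 2 min compound premix. K2CO3 stopped the reaction, with pNP read at 405 nm. Initial rate was plotted against inhibitor concentration.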

For `O=c1n(CC2CC2)cc(-c2ccccc2)n1Cc1ccc(C(F)(F)P(=O)(O)O)c(Br)c1` [Compound 33, {[2-Bromo-4-(3-cyclopropylmethyl-2-oxo-5-phenyl-2,3-dihydro-imidazol-1-ylmethyl)-phenyl]-difluoro-methyl}-phosphonic acid], the IC50 lay within 0.25 to 2.5 µM. As to `Cn1cc(-c2ccc(C(=O)OCOC(=O)C(C)(C)C)cc2)n(Cc2ccc(C(F)(F)P(=O)(O)OCOC(=O)C(C)(C)C)c(Br)c2)c1=O` [Compound 80, 4-[3-(3-Bromo-4-{[(2,2-dimethyl-propionyloxy-methoxy)-hydroxy-phosphoryl]-difluoro-methyl}-benzyl)-1-methyl-2-oxo-2,3-dihydro-1H-imidazol-4-yl]-benzoic acid 2,2-dimethyl-propionyloxymethyl ester], the IC50 was 2.5 to 25 µM. Then `O=C(O)c1ccc(-c2cn(Cc3ccccc3)c(=O)n2Cc2ccc(C(F)(F)P(=O)(O)O)c(Cl)c2)cc1` [Compound 9, 4-{1-Benzyl-3-[3-chloro-4-(difluoro-phosphono-methyl)-benzyl]-2-oxo-2,3-dihydro-1H-imidazol-4-yl}-benzoic acid], with 0.25 to 2.5 µM; and `N#Cc1ccc(-c2cn(Cc3ccccc3)c(=O)n2Cc2ccc(C(F)(F)P(=O)(O)O)c(Br)c2)cc1` [Compound 20, ({4-[3-Benzyl-5-(4-cyano-phenyl)-2-oxo-2,3-dihydro-imidazol-1-ylmethyl]-2-bromo-phenyl}-difluoro-methyl)-phosphonic acid], with 0.1 to 0.249 µM; and `Cn1cc(-c2ccc(C(=O)O)cc2)n(Cc2ccc(C(F)(F)P(=O)(O)O)c(Br)c2)c1=O` [Compound 42, 4-{3-[3-Bromo-4-(difluoro-phosphono-methyl)-benzyl]-1-methyl-2-oxo-2,3-dihydro-1H-imidazol-4-yl}-benzoic acid], with 0.25 to 2.5 µM.

As for `O=C(O)c1ccc(Cn2cc(-c3ccccc3)n(Cc3ccc(C(F)(F)P(=O)(O)O)c(Br)c3)c2=O)cc1` [Compound 55, 4-{3-[3-Bromo-4-(difluoro-phosphono-methyl)-benzyl]-2-oxo-4-phenyl-2,3-dihydro-imidazol-1-ylmethyl}-benzoic acid], the IC50 lay within 0.25 to 2.5 µM.

Regarding `COC(=O)COc1ccc(Cn2ccn(Cc3ccc(C(F)(F)P(=O)(O)O)c(Br)c3)c2=O)cc1Cl` [Compound 82, (4-{3-[3-Bromo-4-(difluoro-phosphono-methyl)-benzyl]-2-oxo-2,3-dihydro-imidazol-1-ylmethyl}-2-chloro-phenoxy)-acetic acid methyl ester], the IC50 was in the range of 0.25 to 2.5 µM. Then `CCOC(=O)c1ccc(-c2cn(Cc3ccccc3)c(=O)n2Cc2ccc(C(F)(F)P(=O)(O)O)c(Br)c2)cc1` [Compound 16, 4-{1-Benzyl-3-[3-bromo-4-(difluoro-phosphono-methyl)-benzyl]-2-oxo-2,3-dihydro-1H-imidazol-4-yl}-benzoic acid ethyl ester], with 0.25 to 2.5 µM; and `O=C(O)c1ccc(Cn2ccn(Cc3ccc(C(F)(F)P(=O)(O)O)c(Br)c3)c2=O)cc1` [Compound 85, 4-{3-[3-Bromo-4-(difluoro-phosphono-methyl)-benzyl]-2-oxo-2,3-dihydro-imidazol-1-ylmethyl}-benzoic acid], with 0.25 to 2.5 µM. The figure for `O=c1n(Cc2ccccc2)cc(-c2cccs2)n1Cc1ccc(C(F)(F)P(=O)(O)O)c(Br)c1` [Compound 44, {[4-(3-Benzyl-2-oxo-5-thiophen-2-yl-2,3-dihydro-imidazol-1-ylmethyl)-2-bromo-phenyl]-difluoro-methyl}-phosphonic acid] is 0.25 to 2.5 µM. With `COC(=O)c1ccc(-c2cn(Cc3ccccc3)c(=O)n2Cc2ccc(C(F)(F)P(=O)(O)O)c(Br)c2)cc1` [Compound 6, 4-{1-Benzyl-3-[3-bromo-4-(difluoro-phosphono-methyl)-benzyl]-2-oxo-2,3-dihydro-1H-imidazol-4-yl}-benzoic acid methyl ester], the IC50 lay in the range of 0.1 to 0.249 µM.

In the case of `CC(C)(Oc1ccc(-c2cn(C3CC3)c(=O)n2Cc2ccc(C(F)(F)P(=O)(O)O)c(Br)c2)cc1)C(=O)O` [Compound 74, 2-(4-{3-[3-Bromo-4-(difluoro-phosphono-methyl)-benzyl]-1-cyclopropyl-2-oxo-2,3-dihydro-1H-imidazol-4-yl}-phenoxy)-2-methyl-propionic acid], the IC50 was less than 0.099 µM. Then `O=c1n(Cc2ccccc2)cc(-c2ccccc2)n1Cc1ccc(C(F)(F)P(=O)(O)O)c(Br)c1` [Compound 29, {[4-(3-Benzyl-2-oxo-5-phenyl-2,3-dihydro-imidazol-1-ylmethyl)-2-bromo-phenyl]-difluoro-methyl}-phosphonic acid], with 0.25 to 2.5 µM; and `CCOC(=O)n1cc(-c2ccc(C(=O)OC)cc2)n(Cc2ccc(C(F)(F)P(=O)(O)OCOC(=O)C(C)(C)C)c(Br)c2)c1=O` [Compound 66, 3-(3-Bromo-4-{[(2,2-dimethyl-propionyloxy-methoxy)-hydroxy-phosphoryl]-difluoro-methyl}-benzyl)-4-(4-methoxycarbonyl-phenyl)-2-oxo-2,3-dihydro-imidazole-1-carboxylic acid ethyl ester], with more than 25 µM.

In the case of `CS(=O)(=O)c1ccc(-c2cn(Cc3cccc(F)c3)c(=O)n2Cc2ccc(C(F)(F)P(=O)(O)O)c(Br)c2)cc1` [Compound 22, ({2-Bromo-4-[3-(3-fluoro-benzyl)-5-(4-methanesulfonyl-phenyl)-2-oxo-2,3-dihydro-imidazol-1-ylmethyl]-phenyl}-difluoro-methyl)-phosphonic acid], the IC50 was in the range of 0.1 to 0.249 µM. For the compound `CCn1cc(-c2ccc(C(=O)OC)cc2)n(Cc2ccc(C(F)(F)P(=O)(O)O)c(Br)c2)c1=O` [Compound 47, 4-{3-[3-Bromo-4-(difluoro-phosphono-methyl)-benzyl]-1-ethyl-2-oxo-2,3-dihydro-1H-imidazol-4-yl}-benzoic acid methyl ester], the IC50 is 0.1 to 0.249 µM. `COC(=O)c1cccc(-c2cn(C3CC3)c(=O)n2Cc2ccc(C(F)(F)P(=O)(O)O)c(Br)c2)c1` [Compound 62, 3-{3-[3-Bromo-4-(difluoro-phosphono-methyl)-benzyl]-1-cyclopropyl-2-oxo-2,3-dihydro-1H-imidazol-4-yl}-benzoic acid methyl ester]: the IC50 is 0.25 to 2.5 µM. Then `CC(C)(C)C(=O)OCOP(=O)(OCOC(=O)C(C)(C)C)C(F)(F)c1ccc(Cn2c(-c3ccc(C#N)cc3)cn(Cc3ccccc3)c2=O)cc1Br` [Compound 57, 2,2-Dimethyl-propionic acid ({4-[3-benzyl-5-(4-cyano-phenyl)-2-oxo-2,3-dihydro-imidazol-1-ylmethyl]-2-bromo-phenyl}-difluoro-methyl)-(2,2-dimethyl-propionyloxy-methoxy)-phosphinoyloxymethyl ester], with more than 25 µM. The figure for `COc1cc(Cn2cc(-c3ccc(C(=O)O)cc3)n(Cc3ccc(C(F)(F)P(=O)(O)O)c(Br)c3)c2=O)cc(OC)c1` [Compound 34, 4-[3-[3-Bromo-4-(difluoro-phosphono-methyl)-benzyl]-1-(3,5-dimethoxy-benzyl)-2-oxo-2,3-dihydro-1H-imidazol-4-yl]-benzoic acid] is 0.25 to 2.5 µM; for `O=C(O)c1ccc(-c2cn(Cc3ccccn3)c(=O)n2Cc2ccc(C(F)(F)P(=O)(O)O)c(Br)c2)cc1` [Compound 36, 4-{3-[3-Bromo-4-(difluoro-phosphono-methyl)-benzyl]-2-oxo-1-pyridin-2-ylmethyl-2,3-dihydro-1H-imidazol-4-yl}-benzoic acid] it is 0.25 to 2.5 µM; for `CS(=O)(=O)c1ccc(Cn2cc(-c3ccccc3)n(Cc3ccc(C(F)(F)P(=O)(O)O)c(Br)c3)c2=O)cc1` [Compound 58, ({2-Bromo-4-[3-(4-methanesulfonyl-benzyl)-2-oxo-5-phenyl-2,3-dihydro-imidazol-1-ylmethyl]-phenyl}-difluoro-methyl)-phosphonic acid] it is 0.25 to 2.5 µM. For `O=C(O)c1ccc(-c2cn(CCc3ccccc3)c(=O)n2Cc2ccc(C(F)(F)P(=O)(O)O)c(Br)c2)cc1` [Compound 14, 4-{3-[3-Bromo-4-(difluoro-phosphono-methyl)-benzyl]-2-oxo-1-phenethyl-2,3-dihydro-1H-imidazol-4-yl}-benzoic acid], the IC50 lay in the range of 0.25 to 2.5 µM. Then `COC(=O)c1ccc(Cn2c(=O)n(Cc3ccc(C(F)(F)P(=O)(O)O)c(Br)c3)c3ccccc32)cc1` [Compound 86, 4-{3-[3-Bromo-4-(difluoro-phosphono-methyl)-benzyl]-2-oxo-2,3-dihydro-benzoimidazol-1-ylmethyl}-benzoic acid methyl ester], with 0.25 to 2.5 µM; and `O=C(O)c1ccc(-c2cn(Cc3ccc(C(F)(F)P(=O)(O)O)c(Br)c3)c(=O)n2Cc2ccccc2)cc1` [Compound 68, 4-{3-Benzyl-1-[3-bromo-4-(difluoro-phosphono-methyl)-benzyl]-2-oxo-2,3-dihydro-1H-imidazol-4-yl}-benzoic acid], with 0.25 to 2.5 µM. For `CC(C)(C)C(=O)OCOP(=O)(O)C(F)(F)c1ccc(Cn2c(-c3ccc(S(C)(=O)=O)cc3)c[nH]c2=O)cc1Br` [Compound 64, 2,2-Dimethyl-propionic acid ({2-bromo-4-[5-(4-methanesulfonyl-phenyl)-2-oxo-2,3-dihydro-imidazol-1-ylmethyl]-phenyl}-difluoro-methyl)-hydroxy phosphinoyloxymethyl ester], the 50% inhibitory concentration (IC50) lay in the range of 2.5 to 25 µM.

(Values after patent US20080070867A1, “2-Imidazolone and 2-Imidazolidinone Heterocyclic Inhibitors of Tyrosine Phosphatases” (Metabasis Therapeutics, Inc., priority 2005, published 2008).)
